ChEMBL document CHEMBL2346513, “Synthesis and evaluation of methylsulfonylnitrobenzamides (MSNBAs) as inhibitors of the thyroid hormone receptor-coactivator interaction” (Bioorg Med Chem Lett, 2013)

What was measured:
[1] = target: T1, Thyroid hormone receptor alpha (Homo sapiens, UniProt P10827); test: Inhibition of TRalpha-LBD (unknown origin) interaction to texas red-labeled SRC2-2 peptide by fluorescence polarization assay
T1 sequence (P10827 whole entry): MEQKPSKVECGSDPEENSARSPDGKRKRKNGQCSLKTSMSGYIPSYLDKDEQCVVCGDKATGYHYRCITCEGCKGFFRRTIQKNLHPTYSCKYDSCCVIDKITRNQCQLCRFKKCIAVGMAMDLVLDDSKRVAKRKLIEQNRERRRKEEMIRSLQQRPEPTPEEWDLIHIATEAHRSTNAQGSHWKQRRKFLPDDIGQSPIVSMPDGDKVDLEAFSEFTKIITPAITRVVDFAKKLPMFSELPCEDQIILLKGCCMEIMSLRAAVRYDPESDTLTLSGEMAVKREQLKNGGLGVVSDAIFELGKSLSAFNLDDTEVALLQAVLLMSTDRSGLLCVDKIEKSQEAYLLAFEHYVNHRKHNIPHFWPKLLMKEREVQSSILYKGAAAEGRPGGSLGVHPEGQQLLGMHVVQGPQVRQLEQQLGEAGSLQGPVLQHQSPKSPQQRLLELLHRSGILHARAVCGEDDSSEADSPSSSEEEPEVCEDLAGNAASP

HepG2 = test: Cytotoxicity against human HepG2 cells assessed as ATP level after 72 hrs by CellTiter-Glo assay; assay type: cell-based; conditions: HepG2, 72 h
Vitamin D3 receptor = target: T2, Vitamin D3 receptor (Homo sapiens, UniProt P11473); test: Inhibition of VDR (unknown origin) interaction to SRC2-3 peptide by fluorescence polarization assay
T2 sequence (P11473 whole entry): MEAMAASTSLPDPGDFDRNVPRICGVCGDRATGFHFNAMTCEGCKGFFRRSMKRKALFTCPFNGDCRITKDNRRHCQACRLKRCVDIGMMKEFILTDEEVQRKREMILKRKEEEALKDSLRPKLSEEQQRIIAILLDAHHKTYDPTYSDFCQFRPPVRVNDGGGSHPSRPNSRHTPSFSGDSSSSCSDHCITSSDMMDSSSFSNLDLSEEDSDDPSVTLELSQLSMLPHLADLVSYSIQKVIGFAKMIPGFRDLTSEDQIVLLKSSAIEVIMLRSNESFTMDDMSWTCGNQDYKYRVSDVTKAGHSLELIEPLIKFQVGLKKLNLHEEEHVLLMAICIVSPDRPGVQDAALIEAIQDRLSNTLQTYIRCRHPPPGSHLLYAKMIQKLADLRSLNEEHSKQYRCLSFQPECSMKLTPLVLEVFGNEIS

[2] = target: T3, Thyroid hormone receptor beta (Homo sapiens, UniProt P10828); test: Inhibition of TRbeta-LBD (unknown origin) interaction to texas red-labeled SRC2-2 peptide by fluorescence polarization assay
T3 sequence (P10828 whole entry): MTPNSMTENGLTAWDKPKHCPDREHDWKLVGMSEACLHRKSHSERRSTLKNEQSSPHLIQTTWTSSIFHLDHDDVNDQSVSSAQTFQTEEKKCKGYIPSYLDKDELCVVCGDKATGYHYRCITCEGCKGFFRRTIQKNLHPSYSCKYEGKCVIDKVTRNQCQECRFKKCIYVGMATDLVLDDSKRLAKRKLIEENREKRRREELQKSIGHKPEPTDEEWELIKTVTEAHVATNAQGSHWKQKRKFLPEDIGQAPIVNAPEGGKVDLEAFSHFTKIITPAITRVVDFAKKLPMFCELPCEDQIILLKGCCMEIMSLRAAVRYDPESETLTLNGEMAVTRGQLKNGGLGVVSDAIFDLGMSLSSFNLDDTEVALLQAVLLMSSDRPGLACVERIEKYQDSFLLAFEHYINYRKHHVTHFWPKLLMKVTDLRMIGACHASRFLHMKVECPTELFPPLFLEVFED

[3] = target: Thyroid hormone receptor (Homo sapiens) (UniProt P10827+P10828); test: Inhibition of thyroid hormone receptor-mediated PEPCK gene transcription in thyroid hormone treated human HepG2 cells by RT-PCR analysis; assay type: cell-based

| IC50 [1] | IC50 (Vitamin D3 receptor) | IC50 [2] | inhibition [3] | Structure (SMILES) | EC50 (HepG2) |
| --- | --- | --- | --- | --- | --- |
| 1.7 µM | > 60 µM | 3.6 µM | Dose-dependent effect | CS(=O)(=O)c1ccc(C(=O)NCC(=O)N(Cc2ccccc2)Cc2ccccc2)cc1[N+](=O)[O-] | 11.9 µM |
| > 60 µM | > 60 µM | > 60 µM |  | CN(Cc1ccccc1)C(=O)C1CCN(C(=O)c2ccc(S(C)(=O)=O)c([N+](=O)[O-])c2)CC1 | > 27 µM |
| > 60 µM | > 60 µM | > 60 µM |  | CN1CCN(C(=O)CNC(=O)c2ccc(S(C)(=O)=O)c([N+](=O)[O-])c2)CC1 | > 27 µM |
| > 60 µM | > 60 µM | > 60 µM |  | CN(Cc1ccccc1F)C(=O)CCNC(=O)c1ccc(S(C)(=O)=O)c([N+](=O)[O-])c1 | > 27 µM |
| > 60 µM | > 60 µM | > 60 µM |  | CCCN(C(=O)CN(C)C(=O)c1ccc(S(C)(=O)=O)c([N+](=O)[O-])c1)c1ccccc1 | > 27 µM |
| > 60 µM | > 60 µM | > 60 µM |  | CS(=O)(=O)c1ccc(C(=O)NCCCC(=O)N2Cc3ccccc3C2)cc1[N+](=O)[O-] | > 27 µM |
| > 60 µM | > 60 µM | > 60 µM |  | CN(CC(=O)N(Cc1ccccc1)Cc1ccccc1)C(=O)c1ccc(S(C)(=O)=O)c([N+](=O)[O-])c1 | > 27 µM |
| > 60 µM | > 60 µM | > 60 µM |  | CS(=O)(=O)c1ccc(C(=O)NCCC(=O)N2CCCCC2)cc1[N+](=O)[O-] | > 27 µM |
| > 60 µM | > 60 µM | > 60 µM |  | CN(CC(=O)N1Cc2ccccc2C1)C(=O)c1ccc(S(C)(=O)=O)c([N+](=O)[O-])c1 | > 27 µM |
| 32 µM | 40 µM | 50 µM |  | CCCN(C(=O)CCNC(=O)c1ccc(S(C)(=O)=O)c([N+](=O)[O-])c1)c1ccccc1 | > 27 µM |
| > 60 µM | > 60 µM | > 60 µM |  | CN(CC(=O)N1CCCCC1)C(=O)c1ccc(S(C)(=O)=O)c([N+](=O)[O-])c1 | 11.3 µM |
| 4.2 µM | > 60 µM | 5.8 µM |  | CN(C(=O)CNC(=O)c1ccc(S(C)(=O)=O)c([N+](=O)[O-])c1)c1ccccc1 | > 27 µM |
| > 60 µM | > 60 µM | 20 µM |  | CS(=O)(=O)c1ccc(C(=O)NCC(=O)N(Cc2ccccc2)c2ccccc2)cc1[N+](=O)[O-] | > 27 µM |
| > 60 µM | 65 µM | > 60 µM |  | CS(=O)(=O)c1ccc(C(=O)NCCCC(=O)N2CCN(c3ccc(F)cc3)CC2)cc1[N+](=O)[O-] | > 27 µM |
| > 60 µM | 7 µM | > 60 µM |  | CS(=O)(=O)c1ccc(C(=O)NCCCC(=O)N2CCN(c3ccc(C(F)(F)F)cc3)CC2)cc1[N+](=O)[O-] | 13 µM |
| > 60 µM | > 60 µM | > 60 µM |  | Cc1ccc(N2CCN(C(=O)CN(C)C(=O)c3ccc(S(C)(=O)=O)c([N+](=O)[O-])c3)CC2)cc1 | > 27 µM |
| 29 µM | > 60 µM | > 60 µM |  | CN(Cc1cccc(F)c1)C(=O)CCNC(=O)c1ccc(S(C)(=O)=O)c([N+](=O)[O-])c1 | 11.2 µM |
